Numbered stars: 1 amine (or outer) side, 2 acyl side, 3 side chain; on linkers, the order of the positions; unused ones are H or OH. Bridge positions count the residues as written; N and C are the ends. Square brackets hold non-standard residues; d marks the D form. Peptide text beside a SMILES is read from it. * marks the point of attachment. ξ: configuration not given here. NH(CH2)5NHDOTA = O=C(O)CN1CCN(CC(=O)O)CCN(CC(=O)NCCCCCN*)CCN(CC(=O)O)CC1; X3 = O=C(O)CN1CCN(CC(=O)O)CCN(CC(=O)NCCCOCCOCCOCCCN*)CCN(CC(=O)O)CC1; DOTA = O=C(O)CN1CCN(CC(=O)O)CCN(CC(=O)*)CCN(CC(=O)O)CC1; Phe(4-SO3H) = N[C@@H](Cc1ccc(S(=O)(=O)O)cc1)C(=O)O; Trp(6-Cl) = N[C@@H](Cc1c[nH]c2cc(Cl)ccc12)C(=O)O; Phe(3-CF3) = N[C@@H](Cc1cccc(C(F)(F)F)c1)C(=O)O; Pro(trans-4-F) = O=C(O)[C@@H]1C[C@@H](F)CN1; Tyr(3-I) = N[C@@H](Cc1ccc(O)c(I)c1)C(=O)O; Phe(3-Cl) = N[C@@H](Cc1cccc(Cl)c1)C(=O)O; Phe(4-Cl) = N[C@@H](Cc1ccc(Cl)cc1)C(=O)O; Phe(4-F) = N[C@@H](Cc1ccc(F)cc1)C(=O)O; Arg(Me) = CNC(=N)NCCC[C@H](N)C(=O)O; Ethylenediamine = C(CN[*:2])N[*:1]; X1 = O=C(CC1CCN([*:1])CC1)[*:2]; Lys(Me) = CNCCCC[C@H](N)C(=O)O; Suc = O=C(CCC(=O)[*:2])[*:1]; Tle = CC(C)(C)[C@H](N)C(=O)O; Aib = CC(C)(N)C(=O)O; ξP = O=C(O)C1CCCN1
Assays:
[1] = biological target: T1, Fc-fusion protein of human PSMA (hPSMA-Fc) (Homo sapiens, UniProt Q04609); assay: Surface plasmon resonance assay (Biacore T200, single cycle kinetic); assay type: binding; conditions: pKD category for PSMA SPR activity assay, hPSMA-Fc, 25° C.; read-out: pKD CAT (converted)
T1 construct: purchased Acro Biosystems PSA-H5264
How it was run: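 hPSMA-Fc was captured (~1000 RU) on an Fc-binding-peptide CM5 chip, and compounds were run in single cycle kinetic mode at 25° C in HBST with 0.1% DMSO. Double-blank-corrected sensorgrams were fitted to a 1:1 Langmuir model to give KD, reported as pKD.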

[2] = biological target: T2, PSMA-expressing C4-2 cells (Homo sapiens, UniProt Q04609); assay: FACS binding assay (competition with 50 nM PSM-0183); conditions: pIC50 category of FACS binding, C4-2 cells; read-out: pIC50 [C4-2] CAT (converted)
T2 construct: PSMA-expressing C4-2 cells (ATCC, Cat. No. CRL-3314) were cultured in RPMI-1640; host or cells: C4-2 cells
How it was run: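 C4-2 cells were incubated 1 h at 4 °C with 50 nM AF488-labelled peptide PSM-0183 plus increasing test compound concentrations, then washed twice in ice-cold buffer. Median fluorescence in the AF488 channel was read by flow cytometry. IC50/pIC50 was derived by 4PL fitting of MFI versus concentration.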

T1 sequence (Q04609 44-750 limits assumed): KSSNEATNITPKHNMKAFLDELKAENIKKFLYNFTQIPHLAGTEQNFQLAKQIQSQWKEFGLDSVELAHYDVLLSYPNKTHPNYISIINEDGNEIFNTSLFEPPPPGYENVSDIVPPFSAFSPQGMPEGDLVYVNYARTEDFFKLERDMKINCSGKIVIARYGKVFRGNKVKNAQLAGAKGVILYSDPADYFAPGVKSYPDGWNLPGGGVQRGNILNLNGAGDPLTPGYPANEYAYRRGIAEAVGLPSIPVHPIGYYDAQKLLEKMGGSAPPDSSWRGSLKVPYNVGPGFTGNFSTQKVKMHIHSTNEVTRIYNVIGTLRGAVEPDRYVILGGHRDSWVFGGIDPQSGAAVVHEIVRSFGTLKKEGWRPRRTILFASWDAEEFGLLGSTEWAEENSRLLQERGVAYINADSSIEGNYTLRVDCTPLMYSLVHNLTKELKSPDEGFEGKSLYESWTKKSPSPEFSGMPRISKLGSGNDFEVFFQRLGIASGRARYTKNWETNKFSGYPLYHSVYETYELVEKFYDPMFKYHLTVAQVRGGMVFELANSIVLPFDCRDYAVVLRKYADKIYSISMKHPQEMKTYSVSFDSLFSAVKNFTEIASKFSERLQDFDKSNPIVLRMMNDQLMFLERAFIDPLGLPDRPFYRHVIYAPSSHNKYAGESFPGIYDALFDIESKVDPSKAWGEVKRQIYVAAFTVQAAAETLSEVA
T2 sequence (Q04609 whole entry): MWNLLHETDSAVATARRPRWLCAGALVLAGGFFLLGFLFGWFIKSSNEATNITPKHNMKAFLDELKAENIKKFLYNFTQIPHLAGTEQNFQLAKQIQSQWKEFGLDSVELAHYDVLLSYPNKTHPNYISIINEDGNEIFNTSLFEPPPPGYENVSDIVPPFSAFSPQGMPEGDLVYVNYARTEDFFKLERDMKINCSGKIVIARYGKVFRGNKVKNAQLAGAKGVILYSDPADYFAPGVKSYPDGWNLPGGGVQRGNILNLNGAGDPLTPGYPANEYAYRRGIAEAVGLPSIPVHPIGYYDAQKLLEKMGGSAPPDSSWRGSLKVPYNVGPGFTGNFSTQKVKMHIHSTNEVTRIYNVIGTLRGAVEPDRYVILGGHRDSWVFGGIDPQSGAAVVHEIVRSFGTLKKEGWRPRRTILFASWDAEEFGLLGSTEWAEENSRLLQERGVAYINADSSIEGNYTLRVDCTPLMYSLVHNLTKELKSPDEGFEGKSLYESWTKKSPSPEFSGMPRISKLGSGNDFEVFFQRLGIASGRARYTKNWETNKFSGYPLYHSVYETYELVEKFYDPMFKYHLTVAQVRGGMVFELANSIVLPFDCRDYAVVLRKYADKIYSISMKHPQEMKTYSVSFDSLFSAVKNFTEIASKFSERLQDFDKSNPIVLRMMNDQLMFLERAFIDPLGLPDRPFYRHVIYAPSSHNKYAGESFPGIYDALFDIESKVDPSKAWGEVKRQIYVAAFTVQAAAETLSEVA

| Kd [1] [µM] | IC50 [2] [µM] | SMILES |
| --- | --- | --- |
| < 0.0126 | < 0.2 | CC(=O)N[C@H](C(=O)NC(C)(C)C(=O)N[C@@H](Cc1cccc(Cl)c1)C(=O)N[C@H]1CSSC[C@@H](C(=O)N[C@H](C(=O)N[C@H](C(=O)N[C@@H](CC(=O)O)C(N)=O)[C@@H](C)O)C(C)(C)C)NC(=O)[C@H](CC(N)=O)NC(=O)C(C)(C)NC(=O)[C@H](CCCNC(=N)N)NC(=O)[C@H](CCCCN)NC1=O)[C@@H](C)O [PSM-0383, Ac-Thr-Aib-Mcf-[Cys-Lys-Arg-Aib-Asn-Cys]-Tle-Thr-Asp-NH2] (Ac-T[Aib][Phe(3-Cl)]CKR[Aib]NC[Tle]TD-NH2; disulfide 4-9) |
| 0.126 to 0.501 | 0.2 to 1.26 | CC(=O)N[C@H](C(=O)NC(C)(C)C(=O)N[C@@H](Cc1ccccc1)C(=O)N[C@H]1CSSC[C@@H](C(=O)N[C@H](C(=O)N[C@H](C(N)=O)[C@@H](C)O)C(C)(C)C)NC(=O)[C@H](CC(N)=O)NC(=O)[C@H](CCCCNC(=O)CN2CCN(CC(=O)O)CCN(CC(=O)O)CCN(CC(=O)O)CC2)NC(=O)[C@H](CCC(N)=O)NC(=O)[C@H](CCCCN)NC1=O)[C@@H](C)O [PSM-0385, Ac-Thr-Aib-Pho-[Cys-Lys-Gln-Lys(DOTA)-Asn-Cys]-Tle-Thr-NH2] (Ac-T[Aib]FCKQK(DOTA)NC[Tle]T-NH2; disulfide 4-9) |
| > 0.501 | > 3.16 | C[C@@H](O)[C@H](NC(=O)[C@@H](NC(=O)[C@@H]1CSSC[C@H](NC(=O)[C@H](Cc2ccc(S(=O)(=O)O)cc2)NC(=O)C(C)(C)NC(=O)[C@@H](NC(=O)CC2CCN(C(=O)CN3CCN(CC(=O)O)CCN(CC(=O)O)CCN(CC(=O)O)CC3)CC2)[C@@H](C)O)C(=O)N[C@@H](CCCCN)C(=O)N[C@@H](CCCNC(=N)N)C(=O)NC(C)(C)C(=O)N[C@@H](CC(N)=O)C(=O)N1)C(C)(C)C)C(N)=O [PSM-0386, DOTA-Cmp-Thr-Aib-Fso-[Cys-Lys-Arg-Aib-Asn-Cys]-Tle-Thr-NH2] ({DOTA}-[X1]T[Aib][Phe(4-SO3H)]CKR[Aib]NC[Tle]T-NH2; disulfide 5-10) |
| > 0.501 | > 3.16 | CNCCCC[C@@H]1NC(=O)[C@@H](NC(=O)[C@H](Cc2ccc(O)c(I)c2)NC(=O)C(C)(C)NC(=O)[C@@H](NC(C)=O)[C@@H](C)O)CSSC[C@@H](C(=O)N[C@H](C(=O)N[C@H](C(N)=O)[C@@H](C)O)C(C)(C)C)NC(=O)[C@H](CC(N)=O)NC(=O)C(C)(C)NC(=O)[C@H](CCCNC(=N)NC)NC1=O [PSM-0387, Ac-Thr-Aib-Miy-[Cys-Lys(Me)-Arg(Me)-Aib-Asn-Cys]-Tle-Thr-NH2] (Ac-T[Aib][Tyr(3-I)]C[Lys(Me)][Arg(Me)][Aib]NC[Tle]T-NH2; disulfide 4-9) |
| < 0.0126 | < 0.2 | CC(=O)N[C@H](C(=O)NC(C)(C)C(=O)N[C@@H](Cc1ccccc1)C(=O)N[C@H]1CSSC[C@@H](C(=O)N[C@H](C(=O)N2CCCC2C(N)=O)C(C)(C)C)NC(=O)[C@H](CC(N)=O)NC(=O)C(C)(C)NC(=O)[C@H](CCCNC(=N)N)NC(=O)[C@H](CCCCN)NC1=O)[C@@H](C)O (stereo partly drawn) [PSM-0388, Ac-Thr-Aib-Phe-[Cys-Lys-Arg-Aib-Asn-Cys]-Tle-Pro-NH2] (Ac-T[Aib]FCKR[Aib]NC[Tle][ξP]-NH2; disulfide 4-9) |
| 0.0126 to 0.126 | < 0.2 | CCCC[C@H](NC(=O)[C@@H]1CSSC[C@H](NC(=O)[C@H](Cc2ccccc2)NC(=O)[C@H](C)NC(=O)[C@@H](NC(C)=O)[C@@H](C)O)C(=O)N[C@@H](CCCCN)C(=O)N[C@@H](CCCNC(=N)N)C(=O)N[C@@H](C)C(=O)N[C@@H](CC(N)=O)C(=O)N1)C(=O)N[C@H](C(=O)N[C@H](CC(=O)O)C(N)=O)[C@@H](C)O [PSM-0389, Ac-Thr-Ala-Phe-[Cys-Lys-Arg-Ala-Asn-Cys]-Nle-Thr-asp-NH2] |
| < 0.0126 | < 0.2 | CNCCCC[C@@H]1NC(=O)[C@@H](NC(=O)[C@H](Cc2c[nH]c3cc(Cl)ccc23)NC(=O)C(C)(C)NC(=O)[C@@H](NC(=O)CC2CCN(C(=O)CN3CCN(CC(=O)O)CCN(CC(=O)O)CCN(CC(=O)O)CC3)CC2)[C@@H](C)O)CSSC[C@@H](C(=O)N[C@H](C(N)=O)C(C)(C)C)NC(=O)[C@H](CC(N)=O)NC(=O)C(C)(C)NC(=O)[C@H](CCCNC(=N)NC)NC1=O [PSM-0390, DOTA-Cmp-Tle-Aib-6Clw-[Cys-Lys(Me)-Arg(Me)-Aib-Asn-Cys]-Tle-NH2] ({DOTA}-[X1]T[Aib][Trp(6-Cl)]C[Lys(Me)][Arg(Me)][Aib]NC[Tle]-NH2; disulfide 5-10) |
| < 0.0126 | < 0.2 | CC(=O)N[C@H](C(=O)NC(C)(C)C(=O)N[C@@H](Cc1ccccc1)C(=O)N[C@H]1CSSC[C@@H](C(=O)N[C@H](C(=O)N[C@H](C(=O)NCCCCCNC(=O)CN2CCN(CC(=O)O)CCN(CC(=O)O)CCN(CC(=O)O)CC2)[C@@H](C)O)C(C)(C)C)NC(=O)[C@H](CC(N)=O)NC(=O)C(C)(C)NC(=O)[C@H](CCCNC(=N)N)NC(=O)[C@H](CCCCN)NC1=O)[C@@H](C)O [PSM-0391, Ac-Thr-Aib-Phe-[Cys-Lys-Arg-Aib-Asn-Cys]-Tle-Thr-Ape-DOTA] (Ac-T[Aib]FCKR[Aib]NC[Tle]T-{NH(CH2)5NHDOTA}; disulfide 4-9) |
| < 0.0126 | < 0.2 | CC(=O)N[C@H](C(=O)NC(C)(C)C(=O)N[C@@H](Cc1ccccc1)C(=O)N[C@H]1CSSC[C@@H](C(=O)N[C@H](C(=O)N[C@H](C(=O)N[C@@H](CC(=O)O)C(N)=O)[C@@H](C)O)C(C)(C)C)NC(=O)[C@H](CC(N)=O)NC(=O)[C@@H]2C[C@@H](F)CN2C(=O)[C@H](CCCNC(=N)N)NC(=O)[C@H](CCCCN)NC1=O)[C@@H](C)O [PSM-0392, Ac-Thr-Aib-Phe-[Cys-Lys-Arg-4Tfp-Asn-Cys]-Tle-Thr-Asp-NH2] (Ac-T[Aib]FCKR[Pro(trans-4-F)]NC[Tle]TD-NH2; disulfide 4-9) |
| < 0.0126 | < 0.2 | CC(=O)N[C@H](C(=O)NC(C)(C)C(=O)N[C@@H](Cc1ccc(Cl)cc1)C(=O)N[C@H]1CSSC[C@@H](C(=O)N[C@H](C(=O)NCCN)C(C)(C)C)NC(=O)[C@H](CC(N)=O)NC(=O)C(C)(C)NC(=O)[C@H](CCCNC(=N)N)NC(=O)[C@H](CCCCN)NC1=O)[C@@H](C)O [PSM-0393, Ac-Thr-Aib-Pcf-[Cys-Lys-Arg-Aib-Asn-Cys]-Tle-en] (Ac-T[Aib][Phe(4-Cl)]CKR[Aib]NC[Tle]-Ethylenediamine; disulfide 4-9) |
| 0.0126 to 0.126 | 0.2 to 1.26 | CC(=O)N[C@H](C(=O)NC(C)(C)C(=O)N[C@@H](Cc1ccccc1)C(=O)N[C@H]1CSSC[C@@H](C(=O)NC(C)(C)C(=O)N[C@H](C(N)=O)[C@@H](C)O)NC(=O)[C@H](CC(N)=O)NC(=O)C(C)(C)NC(=O)[C@H](CCCNC(=N)N)NC(=O)[C@H](CCCCN)NC1=O)[C@@H](C)O [PSM-0394, Ac-Thr-Aib-Phe-[Cys-Lys-Arg-Aib-Asn-Cys]-Aib-Thr-NH2] (Ac-T[Aib]FCKR[Aib]NC[Aib]T-NH2; disulfide 4-9) |
| < 0.0126 | < 0.2 | CNCCCC[C@@H]1NC(=O)[C@@H](NC(=O)[C@H](Cc2ccc(F)cc2)NC(=O)C(C)(C)NC(=O)[C@@H](NC(=O)CC2CCN(C(=O)CN3CCN(CC(=O)O)CCN(CC(=O)O)CCN(CC(=O)O)CC3)CC2)[C@@H](C)O)CSSC[C@@H](C(=O)N[C@H](C(N)=O)C(C)(C)C)NC(=O)[C@H](CC(N)=O)NC(=O)C(C)(C)NC(=O)[C@H](CCCNC(=N)NC)NC1=O [PSM-0395, DOTA-Cmp-Thr-Aib-Pff-[Cys-Lys(Me)-Arg(Me)-Aib-Asn-Cys]-Tle-NH2] ({DOTA}-[X1]T[Aib][Phe(4-F)]C[Lys(Me)][Arg(Me)][Aib]NC[Tle]-NH2; disulfide 5-10) |
| < 0.0126 | < 0.2 | CNCCCC[C@@H]1NC(=O)[C@@H](NC(=O)[C@H](Cc2cccc(C(F)(F)F)c2)NC(=O)C(C)(C)NC(=O)[C@@H](NC(=O)CC2CCN(C(=O)CN3CCN(CC(=O)O)CCN(CC(=O)O)CCN(CC(=O)O)CC3)CC2)[C@@H](C)O)CSSC[C@@H](C(=O)N[C@H](C(N)=O)C(C)(C)C)NC(=O)[C@H](CC(N)=O)NC(=O)C(C)(C)NC(=O)[C@H](CCCNC(=N)NC)NC1=O [PSM-0396, DOTA-Cmp-Thr-Aib-Mtf-[Cys-Lys(Me)-Arg(Me)-Aib-Asn-Cys]-Tle-NH2] ({DOTA}-[X1]T[Aib][Phe(3-CF3)]C[Lys(Me)][Arg(Me)][Aib]NC[Tle]-NH2; disulfide 5-10) |
| 0.0126 to 0.126 | < 0.2 | CC(=O)N[C@H](C(=O)NC(C)(C)C(=O)N[C@@H](Cc1ccccc1)C(=O)N[C@H]1CSSC[C@@H](C(=O)N[C@H](C(=O)N[C@H](C(=O)N[C@@H](CC(=O)O)C(N)=O)[C@@H](C)O)C(C)(C)C)NC(=O)[C@H](CC(N)=O)NC(=O)[C@H](CCCCNC(=O)CN2CCN(CC(=O)O)CCN(CC(=O)O)CCN(CC(=O)O)CC2)NC(=O)[C@H](CCCNC(=N)N)NC(=O)[C@H](CCCCN)NC1=O)[C@@H](C)O [PSM-0397, Ac-Thr-Aib-Phe-[Cys-Lys-Arg-Lys(DOTA)-Asn-Cys]-Tle-Thr-Asp-NH2] (Ac-T[Aib]FCKRK(DOTA)NC[Tle]TD-NH2; disulfide 4-9) |
| < 0.0126 | < 0.2 | C[C@@H](O)[C@H](NC(=O)CCC(=O)NCCCOCCOCCOCCCNC(=O)CN1CCN(CC(=O)O)CCN(CC(=O)O)CCN(CC(=O)O)CC1)C(=O)NC(C)(C)C(=O)N[C@@H](Cc1ccccc1)C(=O)N[C@H]1CSSC[C@@H](C(=O)N[C@H](C(=O)N[C@H](C(=O)N[C@@H](CC(=O)O)C(N)=O)[C@@H](C)O)C(C)(C)C)NC(=O)[C@H](CC(N)=O)NC(=O)C(C)(C)NC(=O)[C@H](CCCNC(=N)N)NC(=O)[C@H](CCCCN)NC1=O [PSM-0398, DOTA-Ttds-Thr-Aib-Phe-[Cys-Lys-Arg-Aib-Asn-Cys]-Tle-Thr-Asp-NH2] ({X3-Suc}-T[Aib]FCKR[Aib]NC[Tle]TD-NH2; disulfide 4-9) |
